Assay results taken from PMC3646771, “The Second Intracellular Loop of the Human Cannabinoid CB2 Receptor Governs G Protein Coupling in Coordination with the Carboxyl Terminal Domain” (PLoS ONE, 2013).

Key:
Experiment in all cases: CRE-luciferase cAMP reporter, HEK293
Format in all cases: cell-based, Homo sapiens
[1] = test system: T1, CB2-ICL2Cter (i2Cter); conditions: agonist; stimulation of cAMP, no forskolin, 4 h, 37 °C; pEC50 6.85±0.1
T1 construct: gene CNR2; Flag-tagged CB2 with second intracellular loop and C-terminal tail of CB1; HEK293
Excerpt: CRE-luciferase cAMP reporter, HEK293 on CB2-ICL2Cter (i2Cter)

[2] = test system: T2, CB2-ICL2ICL3 (i2i3); conditions: agonist; inhibition of cAMP elevated by 10 µM forskolin, 4 h, 37 °C; pEC50 8.47±0.15
T2 construct: gene CNR2; Flag-tagged CB2 with second and third intracellular loops of CB1; HEK293
Excerpt: CRE-luciferase cAMP reporter, HEK293 on CB2-ICL2ICL3 (i2i3)

[3] = test system: T3, CB2-ICL2 (i2); conditions: agonist; inhibition of cAMP elevated by 10 µM forskolin, 4 h, 37 °C; pEC50 7.74±0.09
T3 construct: gene CNR2; Flag-tagged CB2 with second intracellular loop replaced by that of CB1; HEK293
Excerpt: CRE-luciferase cAMP reporter, HEK293 on CB2-ICL2 (i2)

[4] = test system: T4, CB2-Cter (Cter); conditions: agonist, 4 h, 37 °C
T4 construct: gene CNR2; Flag-tagged CB2 with C-terminal tail replaced by that of CB1; HEK293
Excerpt: CRE-luciferase cAMP reporter, HEK293 on CB2-Cter (Cter)

[5] = test system: T5, CB2-ICL1 (i1); conditions: agonist; inhibition of cAMP elevated by 10 µM forskolin, 4 h, 37 °C; pEC50 8.17±0.19
T5 construct: gene CNR2; Flag-tagged CB2 with first intracellular loop replaced by that of CB1; HEK293
Excerpt: CRE-luciferase cAMP reporter, HEK293 on CB2-ICL1 (i1)

[6] = test system: T6, CB2-ICL3 (i3); conditions: agonist; inhibition of cAMP elevated by 10 µM forskolin, 4 h, 37 °C; pEC50 7.99±0.22
T6 construct: gene CNR2; Flag-tagged CB2 with third intracellular loop replaced by that of CB1; HEK293
Excerpt: CRE-luciferase cAMP reporter, HEK293 on CB2-ICL3 (i3)

[7] = test system: T7, CB2-ICL2ICL3Cter (i2i3Cter); conditions: agonist; inhibition of cAMP elevated by 10 µM forskolin, 4 h, 37 °C; pEC50 8.48±0.22
T7 construct: gene CNR2; Flag-tagged CB2 with second and third intracellular loops and C-terminal tail of CB1; HEK293
Excerpt: CRE-luciferase cAMP reporter, HEK293 on CB2-ICL2ICL3Cter (i2i3Cter)

SMILES: Cc1c(C(=O)c2cccc3ccccc23)c2cccc3c2n1[C@H](CN1CCOCC1)CO3 [WIN55,212-2]
- EC50 [1]: 149 ± 35 nM
- EC50 [2]: 3.8 ± 1.2 nM
- EC50 [3]: 19.2 ± 4.4 nM
- EC50 ([4]; P139LCter, stimulation of cAMP, no forskolin, pEC50 7.53±0.11): 29.8 ± 7.1 nM
- EC50 ([4]; inhibition of cAMP elevated by 10 µM forskolin, pEC50 8.23±0.03): 5.9 ± 0.4 nM
- EC50 [5]: 8 ± 2.8 nM
- EC50 [6]: 13.4 ± 7.3 nM
- EC50 [7]: 4.4 ± 2.4 nM
